Data: publication PMC6265302, “Widespread bacterial lysine degradation proceeding via glutarate and L-2-hydroxyglutarate” (Nature Communications, 2018)

Columns and labels:
CsiD = target: T1, CsiD (Escherichia coli, UniProt P76621); assay: CsiD activity assay, product inhibition; type: biochemical; details: reaction product
T1 construct: gene glaH; full ORF, N-terminal 6xHis tag (pET28a), expressed in E. coli BL21(DE3); Fe(II); homotetramer
T1 sequence (P76621 1-325): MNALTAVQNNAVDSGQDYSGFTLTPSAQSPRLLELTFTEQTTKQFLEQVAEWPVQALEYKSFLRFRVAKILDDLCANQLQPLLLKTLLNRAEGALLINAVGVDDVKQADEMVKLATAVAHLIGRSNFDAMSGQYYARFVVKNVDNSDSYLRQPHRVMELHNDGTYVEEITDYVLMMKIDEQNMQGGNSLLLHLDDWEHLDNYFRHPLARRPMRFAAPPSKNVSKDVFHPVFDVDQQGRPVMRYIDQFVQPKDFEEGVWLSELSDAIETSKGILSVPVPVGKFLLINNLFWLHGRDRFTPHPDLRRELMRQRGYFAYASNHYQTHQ

CsiR = target: T2, CsiR (Escherichia coli, UniProt P37338); assay: filter binding assay with […]-labelled csiD promoter DNA; details: 1 mM ligand, Tris-HCl pH 7.6, 5 mM MgCl2; allosteric relief of DNA binding
T2 construct: gene glaR; full ORF, N-terminal 6xHis tag (pET28a), expressed in E. coli BL21(DE3)
T2 sequence (P37338 1-220): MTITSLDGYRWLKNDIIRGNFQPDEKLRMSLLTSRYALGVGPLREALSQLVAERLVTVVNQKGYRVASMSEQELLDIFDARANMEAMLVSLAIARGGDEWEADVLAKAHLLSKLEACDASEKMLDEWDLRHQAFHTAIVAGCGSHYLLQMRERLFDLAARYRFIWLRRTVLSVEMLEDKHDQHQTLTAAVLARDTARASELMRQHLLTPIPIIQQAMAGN

| Compound | weak inhibition (CsiD) | reduced DNA binding at 1 mM (CsiR) |
| --- | --- | --- |
| O=C(O)CC[C@H](O)C(=O)O [L-2-hydroxyglutarate] | We did observe weak inhibition of CsiD by its product L2HG | – |
| O=C(O)CCCC(=O)O [glutarate] | – | repressive effect at the csiD promoter site is specifically relieved upon GA binding |
